According to patent US20130189764A1, “SELECTIVE GROWTH MEDIA” (Oxide Limited, priority 2000, published 2013):
≈ marks a conversion by molar mass, not a printed value.

What was measured:
[1] = system: Enterococcus faecalis 640; experiment: MIC in DMSal medium (Example 17); format: cell-based; conditions: Enterococcus faecalis, 640
[2] = system: Enterococcus faecalis OCC 640; experiment: growth on nutrient agar streak plates, pure culture (Example 3); format: cell-based; conditions: E. faecalis OCC 640, nutrient agar, 0-10 mM tested
From the text: Example 1 was repeated using Enterococcus faecalis OCC 640 as the test organism.

[3] = system: Bacillus subtilis strain OCC 214; experiment: growth on nutrient agar streak plates, pure culture (Example 1); format: cell-based; conditions: B. subtilis OCC214, nutrient agar, 0-10 mM tested
From the text: In example 1 the sensitivity of Bacillus subtilis strain OCC 214 to alaphosphin or AEP was investigated. […] The organism is known to be LALA-ve, so the observations agree with the known characteristics of the organism.

[4] = system: Enterococcus faecalis 501; experiment: MIC in DMSal medium (Example 17); format: cell-based; conditions: Enterococcus faecalis, 501
B. subtilis OCC 214 = experiment: growth on nutrient agar, mixed culture with K. pneumoniae (Example 8); format: cell-based, Bacillus subtilis
From the text: Example 6 was repeated, this time using a mixed culture of B. subtilis OCC 214 and K. pneumoniae CMCC 3077, in the presence of AEP or alaphosphin. The empty columns show the growth of B. subtilis, the shaded columns denote growth of K. pneumoniae.

S. aureus OCC 102 = experiment: growth on nutrient agar, mixed culture with E. faecalis (Example 7); format: cell-based, Staphylococcus aureus; conditions: S. aureus in mixed culture with E. faecalis
From the text: Example 6 was repeated, this time using a mixed culture of S. aureus OCC 102 and E. faecalis OCC 604, in the presence of AEP or alaphosphin. The empty columns represent growth of S. aureus, the shaded columns represent growth of E. faecalis. […] Thus alaphosphin could be used, when incorporated at an appropriate concentration in a medium, to inhibit growth of organisms such as Enterococci in samples whilst allowing Staphylococci to grow and be detected.

Enterococcus faecium 220 = experiment: MIC in DMSal medium (Example 17); format: cell-based; conditions: Enterococcus faecium, 220
S. aureus ss aureus 2355 = experiment: MIC in DMSal medium (Example 17); format: cell-based; conditions: Staphylococcus aureus
From the text: (§1) Isoleucyl-AEP and sarcosyl-alanyl-AEP were compared to ala-AEP (all in DMSal medium) for the ability to selectively recover two clinically important pathogenic bacteria: Salmonella and Staphylococcus aureus.

[5] = system: Enterococcus faecalis 581; experiment: MIC in DMSal medium (Example 17); format: cell-based; conditions: Enterococcus faecalis, 581
From the text: as §1

S. aureus 198 = experiment: MIC in DMSal medium (Example 17); format: cell-based; conditions: Staphylococcus aureus, 198
From the text: as §1

S. aureus (MRSA) 934 = experiment: MIC in DMSal medium (Example 17); format: cell-based; conditions: Staphylococcus aureus, MRSA
From the text: as §1

[6] = system: Salmonella typhimurium OCC 722; experiment: Bioscreen growth, comparison with conventional selective agents (Example 12); format: cell-based; conditions: 60 μg/ml alaphosphin, Lab-Lemco broth + phosphate buffer pH 6.0
Description: The following is an example to illustrate the beneficial lower toxic properties of the new selective agents towards the target microorganism, in this case Salmonella. Two selective agents, cefsulodin and novobiocin, as used conventionally in Salmonella isolation from foods (Humphrey and Whitehead, 1992 British Poultry Science 33, 761-768) were compared with alaphosphin. All were dissolved in deionised water, filter sterilised, and an amount of the solution added to either autoclaved Lab-Lemco broth+phosphate buffer (20 g/l; pH 6.0; ala-AEP) or Buffered Peptone Water (pH 6.8; cefsulodin and novobiocin) to give final concentrations of 66, 16.5 and 11 μg/ml respectively. [The different pH values reflect the different pH optima of the selective agents (ala-AEP was also subsequently used in BPW at pH 6.8 and similar results obtained)]. Volumes (300 μl) were then pipetted into the wells of Bioscreen microtitre plates and 30 μl quantities of 1 in 10,000 dilutions of overnight cultures of E. coli OCC 2129 and Salmonella typhimurium OCC 722, added. Plates were then covered, incubated at 37° C., and the opacity of the organism suspensions measured using a Bioscreen instrument.
Typical results are shown in FIGS. 17-19, which are graphs of optical density against time for S. typhimurium (circles) and E. coli (squares) in the presence (empty symbols) or absence (filled symbols) of 15 μg/ml cefsulodin (FIG. 17), 10 μg/ml novobiocin (FIG. 18) or 60 μg/ml alaphosphin (FIG. 19).

K. pneumoniae CMCC 3077 = experiment: growth on nutrient agar, mixed culture with S. aureus (Example 6); format: cell-based, Klebsiella pneumoniae; conditions: K. pneumoniae in mixed culture with S. aureus
From the text: Example 1 was repeated, this time using a mixed culture of K. pneumoniae CMCC 3077 and S. aureus OCC 102. The results for growth in the presence of AEP or alaphosphin are shown in FIGS. 7 and 8 respectively: empty columns represent growth of S. aureus, the shaded columns represent growth of K. pneumoniae. […] Accordingly, there is a considerable alaphosphin concentration range over which S. aureus will readily grow whilst K. pneumoniae will be inhibited. Even if K. pneumoniae cells lyse due to the toxic effect of AEP released intracellularly, the AEP is not toxic for S. aureus at the concentrations involved.

[7] = system: strains of Escherichia coli; experiment: Bioscreen growth in Lab-Lemco broth (Example 11), E. coli strains; format: cell-based; conditions: 64 μg/ml, Lab-Lemco broth pH 5.7, 37° C., four E. coli strains
Description: (§2) Thus, Ala-AEP was dissolved in deionised water (7.0 mg/ml), filter sterilised, and an amount of the solution added to autoclaved Lab-Lemco broth (20 g/l; pH 5.7) to give a concentration of 70 μg/ml. Volumes (300 μl) of this solution were then pipetted into the wells of Bioscreen microtitre plates and 30 μl quantities of 1 in 10,000 dilutions of overnight cultures added (reducing the final alaphosphin concentration to 64 μg/m). Plates were then covered, incubated at 37° C., and the opacity of the organism suspensions measured using a Bioscreen instrument. Growth of the Salmonella strains was unaffected whereas the E. coli strains were all inhibited.
(§3) Typical results are shown in FIG. 16, which is a graph of Optical Density against time (hours). Growth of S. indiana OCC 2412 and S. worthington OCC 634 is denoted by crosses and circles respectively.

[8] = system: S. indiana OCC 2412 and S. worthington OCC 634; experiment: Bioscreen growth in Lab-Lemco broth (Example 11), Salmonella strains; format: cell-based; conditions: 64 μg/ml, Lab-Lemco broth pH 5.7, 37° C.
Description: as §2, §3

[9] = system: Enterobacter sakazakii 1888; experiment: MIC in DMSal medium (Example 17); format: cell-based; conditions: Cronobacter sakazakii, 1888
[10] = system: Salmonella typhimurium OCC 1870; experiment: growth on nutrient agar streak plates, pure culture (Example 2); format: cell-based; conditions: S. typhimurium OCC 1870, nutrient agar, 0-10 mM tested
From the text: Example 1 was repeated, using Salmonella typhimurium OCC 1870 as the test organism. The results are shown in FIG. 3, which uses the same key as FIG. 2.

With `C[C@H](N)C(=O)N[C@@H](C)P(=O)(O)O` [alaphosphin, L-alanyl-L-1-aminoethylphosphonic acid] the MIC [1] was 10 µg/mL (≈ 51 µM), the “concentration at which growth is completely inhibited” value [2] was no less than 2 mM and the “sensitivity of growth (in words)” value [3] was “completely insensitive”. For the same compound, the MIC [4] was 10 µg/mL (≈ 51 µM), the “sensitivity of growth (in words)” value (B. subtilis OCC 214) was “insensitive” and the “concentration at which growth is inhibited” value (S. aureus OCC 102) was no less than 10 mM. The MIC (Enterococcus faecium 220) was greater than 50 µg/mL, the MIC (S. aureus ss aureus 2355) was 10 µg/mL (≈ 51 µM) and the MIC [5] was 10 µg/mL (≈ 51 µM). For the same compound, the MIC (S. aureus 198) was 5 µg/mL (≈ 25.5 µM), the MIC (S. aureus (MRSA) 934) was 25 µg/mL (≈ 127 µM) and the “effect on growth of S. typhimurium” value [6] was “no significant difference”. For the same compound, the “concentration at which growth is completely inhibited” value (K. pneumoniae CMCC 3077) was “above 1 mM”, the “growth (optical density) in presence of the agent” value [7] was “all inhibited” and the “growth (optical density) in presence of the agent” value [8] was “unaffected”. For the same compound, the MIC [9] was 0.075 µg/mL (≈ 0.382 µM) and the “concentration at which growth is completely inhibited” value [10] was no less than 5 mM.
